How the values were obtained:
Assay in all cases: relative viability (nuclei count vs DMSO), 5 days (fraction); higher = more cells survive
[1] = compound: C1CC(C2=C(C1)C3=C(N2)C=CC(=C3)Cl)C(=O)N [Selisistat] + CCNC(=O)c1noc(-c2cc(C(C)C)c(O)cc2O)c1-c1ccc(CN2CCOCC2)cc1 [Luminespib] (partner 0.01 µM)
Outline: (§1)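 Dosing by pin tool came one day after lung cancer cell lines were seeded in 1536-well plates, using either one drug or a fixed anchor-drug dose plus five library-drug doses (not always all listed) in √10 steps. After 5 days, nuclei were counted on 4× images. Relative viability is treated-well nuclei count divided by vehicle-well nuclei count, and values are medians of duplicate plates.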

[2] = compound: c1ccc2c(CCNc3ccc(Nc4ccncc4)cc3)c[nH]c2c1 [Serdemetan] + CC(=O)Nc1cccc(-n2c(=O)n(C3CC3)c(=O)c3c(Nc4ccc(I)cc4F)n(C)c(=O)c(C)c32)c1 [Trametinib] (partner 0.02 µM)
Outline: as §1

[3] = compound: c1ccc2c(CCNc3ccc(Nc4ccncc4)cc3)c[nH]c2c1 [Serdemetan] + Nc1ncn([C@H]2C[C@H](O)[C@@H](CO)O2)c(=O)n1 [Decitabine] (partner 2 µM)
Outline: as §1

[4] = compound: c1ccc2c(CCNc3ccc(Nc4ccncc4)cc3)c[nH]c2c1 [Serdemetan] + C[C@]1(O)C[C@@H](c2nc(-c3ccc4ccc(-c5ccccc5)nc4c3)c3c(N)nccn32)C1 [Linsitinib] (partner 1 µM)
Outline: as §1

Row | Cell Line | relative viability ([1]; first compound 0.4 µM) | relative viability ([1]; first compound 1.265 µM) | relative viability ([1]; first compound 12.65 µM) | relative viability ([1]; first compound 40 µM) | relative viability ([2]; first compound 0.04 µM) | relative viability ([2]; first compound 0.1265 µM) | relative viability ([2]; first compound 0.4 µM) | relative viability ([2]; first compound 1.265 µM) | relative viability ([2]; first compound 4 µM) | relative viability ([3]; first compound 0.04 µM) | relative viability ([3]; first compound 0.1265 µM) | relative viability ([3]; first compound 0.4 µM) | relative viability ([3]; first compound 1.265 µM) | relative viability ([3]; first compound 4 µM) | relative viability ([4]; first compound 0.04 µM) | relative viability ([4]; first compound 0.1265 µM) | relative viability ([4]; first compound 0.4 µM) | relative viability ([4]; first compound 1.265 µM) | relative viability ([4]; first compound 4 µM) | relative viability ([1]; first compound 4 µM)
1 | HCC-15 | 0.329 | 0.205 | 0.373 | 0.319 | 0.402 | 0.397 | 0.361 | 0.334 | 0.317 | 0.614 | 0.599 | 0.56 | 0.511 | 0.341 | 0.861 | 0.893 | 0.797 | 0.647 | 0.62 | –
2 | HCC-44 | 1.05 | – | 1.12 | 1.16 | 1.08 | 1.05 | 0.968 | 0.964 | 0.837 | 0.895 | 0.954 | 0.925 | 0.865 | 0.961 | 0.637 | 0.634 | 0.598 | 0.426 | 0.424 | –
3 | HCC-78 | – | – | – | – | 0.725 | 0.731 | 0.796 | 0.688 | 0.552 | 0.659 | 0.718 | 0.698 | 0.638 | 0.525 | 0.505 | 0.525 | 0.542 | 0.499 | 0.257 | –
4 | HCC-366 | – | – | – | – | 0.279 | 0.114 | 0.0617 | 0.0278 | 0.0741 | 0.209 | 0.154 | 0.0922 | 0.0502 | 0.0773 | 0.731 | 0.317 | 0.244 | 0.0612 | 0.0456 | –
5 | HCC-827 | 0.619 | 0.6 | 0.575 | 0.832 | 0.543 | 0.603 | – | 0.359 | 0.318 | 0.371 | 0.243 | – | 0.263 | 0.305 | 0.892 | 0.9 | – | 0.689 | 0.762 | 0.482
6 | HOP-62 | 0.951 | 0.967 | 0.88 | 1.01 | 0.353 | 0.319 | 0.343 | 0.314 | 0.28 | 0.195 | 0.256 | 0.22 | 0.196 | 0.177 | 1.02 | 0.934 | 0.968 | 0.738 | 0.47 | 0.886
7 | IA-LM | – | – | – | – | – | – | – | – | – | – | – | – | – | – | 0.549 | 0.679 | 0.537 | 0.394 | 0.388 | –
8 | LC-2-ad | 1.13 | – | 1 | 1.06 | 0.86 | 0.909 | 0.884 | 0.86 | 0.705 | 0.795 | 0.727 | 0.679 | 0.714 | 0.634 | 0.908 | 0.805 | 0.857 | – | 0.722 | 1.02
9 | LCLC-97TM1 | 0.74 | 0.679 | 0.619 | 0.724 | 0.204 | 0.193 | 0.177 | 0.167 | 0.171 | 0.232 | 0.213 | 0.239 | 0.175 | 0.165 | 0.211 | 0.172 | 0.186 | 0.12 | 0.181 | –
10 | NCI-H522 | 1.07 | 1.1 | 1.17 | 1.08 | 0.678 | 0.698 | 0.87 | 0.702 | 0.612 | 0.677 | 0.775 | 0.68 | 0.691 | 0.613 | – | – | – | – | – | 0.789
11 | NCI-H1299 | – | – | – | – | – | – | – | – | – | – | – | – | – | – | 0.923 | 0.999 | 0.969 | 0.777 | 0.669 | –
12 | NCI-H1563 | 0.473 | 0.523 | 0.528 | 0.541 | – | – | – | – | – | – | – | – | – | – | 1.13 | 1.03 | 0.94 | 1.06 | 0.759 | 0.54
13 | NCI-H1623 | 0.701 | 0.504 | 0.644 | 0.503 | – | – | – | – | – | – | – | – | – | – | – | – | – | – | – | 0.315
14 | NCI-H1648 | – | – | – | – | – | 0.534 | 0.393 | 0.317 | 0.296 | – | 0.533 | 0.424 | 0.3 | 0.302 | – | – | – | – | – | –
15 | NCI-H1650 | 0.17 | 0.192 | 0.202 | 0.191 | 0.58 | 0.633 | 0.49 | 0.611 | 0.516 | 0.408 | 0.435 | 0.411 | 0.422 | 0.266 | – | – | – | – | – | 0.178
16 | NCI-H1703 | – | – | – | – | – | – | – | – | – | – | – | – | – | – | 0.515 | 1.04 | 0.765 | 0.654 | 0.608 | –
17 | NCI-H2170 | 0.653 | 0.726 | 0.843 | 0.696 | 0.912 | 0.988 | 0.87 | 0.9 | 0.944 | 0.419 | 0.497 | 0.437 | 0.417 | 0.361 | – | – | – | – | – | 0.76
18 | NCI-H2228 | 0.153 | 0.101 | 0.145 | 0.13 | 0.564 | 0.523 | 0.327 | 0.115 | 0.172 | – | – | – | – | – | 0.806 | 0.68 | 0.519 | 0.59 | 0.397 | 0.152
19 | NCI-H2342 | 0.725 | 0.668 | 0.923 | 0.742 | 0.818 | 0.84 | 1.12 | 0.789 | 0.669 | 0.753 | 0.776 | 0.643 | 0.531 | 0.475 | – | – | – | – | – | 0.625
20 | SW 900 | 0.175 | 0.175 | 0.16 | 0.177 | 0.636 | 0.63 | 0.874 | 0.8 | 0.519 | 0.398 | 0.473 | 0.433 | 0.331 | 0.284 | – | – | – | – | – | 0.179

Source: the supplement of paper PMC10307832
